≈ marks a conversion by molar mass, not a printed value. Some results are limits rather than exact numbers.

Common to all, as to type: functional
The subject of one assay is Citrobacter freundii. Briefly: In vitro antibacterial activity against gram-negative Citrobacter freundii.
The subject of a further assay is Klebsiella pneumoniae. The experiment in a line: In vitro antibacterial activity against gram-negative Klebsiella pneumoniae.
The test system of another assay is Staphylococcus aureus. The experiment in a line: In vitro antibacterial activity against gram-positive Staphylococcus aureus.
The next assay has as its system Streptococcus pneumoniae. Briefly: In vitro antibacterial activity against gram-positive Streptococcus pneumoniae.
For assay [1], the system named is Staphylococcus epidermidis. The experiment in a line: In vitro antibacterial activity against gram-positive Staphylococcus epidermidis.
In another assay the test system is Shigella boydii. Briefly: In vitro antibacterial activity against gram-negative Shigella boydii.

For orientation: MIC means the least concentration at which growth counts as inhibited. `CN[C@H](CC(C)C)C(=O)N[C@H]1C(=O)N[C@@H](CC(N)=O)C(=O)N[C@H]2C(=O)N[C@H]3C(=O)N[C@H](C(=O)N[C@H](C(=O)O)c4cc(O)cc(O)c4-c4cc3ccc4O)[C@H](O)c3ccc(c(Cl)c3)Oc3cc2cc(c3O[C@@H]2O[C@H](CO)[C@@H](O)[C@H](O)[C@H]2O[C@H]2C[C@](C)(N)[C@H](O)[C@H](C)O2)Oc2ccc(cc2Cl)[C@H]1O` [VANCOMYCIN] registered an MIC in the assay on Citrobacter freundii of over 6.25 µg/mL.
Turning to `CCn1cc(C(=O)O)c(=O)c2cc(F)c(N3CCNC(C)C3)c(F)c21` (centres undefined) [LOMEFLOXACIN], the MIC in the assay with Citrobacter freundii was 0.098 µg/mL (≈ 0.279 µM); against Klebsiella pneumoniae it was 0.098 µg/mL (≈ 0.279 µM); in the assay on Staphylococcus aureus, 0.78 µg/mL (≈ 2.22 µM); in the assay on Streptococcus pneumoniae, 0.195 µg/mL (≈ 0.555 µM); in assay [1] it was 0.78 µg/mL (≈ 2.22 µM); in the assay on Shigella boydii it was 0.098 µg/mL (≈ 0.279 µM).
In the assay on Citrobacter freundii, `Cc1ccc(NCc2c(F)cc3c(=O)c(C(=O)O)cn(C4CC4)c3c2F)cc1C.Cl` came in with an MIC of 1.56 µg/mL.
Same read-out and setting: with `Cl.O=C(O)c1cn(C2CC2)c2c(F)c(CNc3ccc(Cl)cc3)c(F)cc2c1=O` the figure was 1.56 µg/mL.
As for `Cl.O=C(O)c1cn(C2CC2)c2c(F)c(CNc3ccc(F)cc3)c(F)cc2c1=O`, the MIC in the assay with Citrobacter freundii is 0.39 µg/mL.
Compound `CCCCNCc1c(F)cc2c(=O)c(C(=O)O)cn(C3CC3)c2c1F.Cl` had an MIC against Citrobacter freundii of 0.098 µg/mL.
With `CC(C)NCc1c(F)cc2c(=O)c(C(=O)O)cn(C3CC3)c2c1F.Cl`, the MIC against Citrobacter freundii is 0.098 µg/mL; against Klebsiella pneumoniae, 0.098 µg/mL; in the assay with Staphylococcus aureus, over 6.25 µg/mL; in the assay with Streptococcus pneumoniae, 1.56 µg/mL; in assay [1], over 6.25 µg/mL; in the assay with Shigella boydii it was 0.195 µg/mL.
`Cc1cc(C)nc(NCc2c(F)cc3c(=O)c(C(=O)O)cn(C4CC4)c3c2F)c1.Cl`: 0.78 µg/mL was the least that counted as inhibitory in the assay on Citrobacter freundii (MIC).
On the same count and under the same terms, with `CCNCc1c(F)cc2c(=O)c(C(=O)O)cn(C3CC3)c2c1F.Cl` the figure was at most 0.049 µg/mL; with `Cl.O=C(O)c1cn(C2CC2)c2c(F)c(CN3CCNCC3)c(F)cc2c1=O`, 0.195 µg/mL.
Consider `Cl.NCc1c(F)cc2c(=O)c(C(=O)O)cn(C3CC3)c2c1F`, for which the minimum inhibitory concentration (MIC) against Citrobacter freundii turned out to be 0.098 µg/mL; against Klebsiella pneumoniae it was 0.098 µg/mL; against Staphylococcus aureus, 12.5 µg/mL; in the assay on Streptococcus pneumoniae, 0.78 µg/mL; in assay [1], 12.5 µg/mL; with Shigella boydii, 0.098 µg/mL.
Regarding `Cl.O=C(O)c1cn(C2CC2)c2c(F)c(CNc3cccc(Cl)c3)c(F)cc2c1=O`, the MIC with Citrobacter freundii was found to be 1.56 µg/mL.
As for `O=C(O)c1cn(C2CC2)c2c(F)c(N3CCNCC3)c(F)cc2c1=O`, the MIC in the assay with Citrobacter freundii turned out to be 0.049 µg/mL (≈ 0.14 µM); with Klebsiella pneumoniae, 0.049 µg/mL (≈ 0.14 µM); in the assay on Staphylococcus aureus, 0.195 µg/mL (≈ 0.558 µM); against Streptococcus pneumoniae it was 0.049 µg/mL (≈ 0.14 µM); in assay [1] it was 0.39 µg/mL (≈ 1.12 µM); in the assay on Shigella boydii, 0.049 µg/mL (≈ 0.14 µM).
The compound `CCCNCc1c(F)cc2c(=O)c(C(=O)O)cn(C3CC3)c2c1F.Cl` yielded an MIC against Citrobacter freundii of 0.195 µg/mL.
On the same count and under the same terms, in the case of `Cl.O=C(O)c1cn(C2CC2)c2c(F)c(CNC3CC3)c(F)cc2c1=O` it was at most 0.049 µg/mL; in that of `Cl.O=C(O)c1cn(C2CC2)c2c(F)c(CNc3ccc(F)c(Cl)c3)c(F)cc2c1=O`, 0.78 µg/mL; in that of `CN1CCN(Cc2c(F)cc3c(=O)c(C(=O)O)cn(C4CC4)c3c2F)CC1.Cl`, 1.56 µg/mL.
As for `Cc1ccc(NCc2c(F)cc3c(=O)c(C(=O)O)cn(C4CC4)c3c2F)cc1.Cl`, in the assay on Citrobacter freundii, the MIC was found to be 0.78 µg/mL.
For the compound `Cl.O=C(O)c1cn(C2CC2)c2c(F)c(CNc3ccccc3)c(F)cc2c1=O`, in the assay with Citrobacter freundii, the minimum inhibitory concentration (MIC) worked out at 0.39 µg/mL.

(Values after ChEMBL document CHEMBL1139448, “Synthesis and antibacterial activity of 7-(substituted)aminomethyl quinolones” (2004).)
